# Data published in patent US20140140946A1, “SKIN PREPARATION COMPOSITION FOR EXTERNAL USE WITH EXCELLENT ANTIBACTERIAL AND ANTIFUNGAL EFFECTS” (priority 2010, published 2014).
# Key:
# Type in all cases: cell-based
# [1] = tested on: Pityrosporum ovale (Malassezia furfur); assay: Growth of Pityrosporum ovale in Leeming & Notman medium; settings: 32° C. for 3 days; FIG. 4; trisodium phosphate at pH 8.0
# Procedure: Each of citric acid (pH 4.0), trisodium phosphate (TSP, pH 8.4) and citric acid+trisodium phosphate (pH 5.0) was added to Leeming & Notman medium of 1 L containing glucose 10 g, peptone 10 g, bile salts 8 g, yeast extract 2 g, glycerol monostearate 0.5 g, glycerol 10 ml and Tween 80 (1.5%) 15 ml, and 0.1 ml of Pityrosporum ovale (Malassezia furfur), which is a kind of fungi known for causing atopy, was injected to each group.
# [2] = tested on: Streptococcus sanguinis; assay: Growth of Streptococcus sanguinis in BHI broth; settings: citric acid 0.4 g, trisodium phosphate 0.64 g, pH 6.0
# Source text: (§1) The following control group is a broth not injected with the bacteria.
# [3] = tested on: Peptostreptococcus asaccharolyticus (KTCC 3321); assay: Growth of Peptostreptococcus asaccharolyticus in Wilkins Chalgren Anaerobe Broth; settings: citric acid 0.8 g, trisodium phosphate 1.85 g, pH 6.0
# Source text: as §1
# [4] = tested on: S. salivarius (KCTC 3960); assay: Growth of S. salivarius in BHI broth; settings: citric acid 0.4 g, trisodium phosphate 0.64 g, pH 6.0
# Source text: as §1
# [5] = tested on: Streptococcus mutans (KCTC 3065); assay: Growth of Streptococcus mutans in BHI broth; settings: citric acid 0.4 g, trisodium phosphate 0.64 g, pH 6.0
# Source text: as §1
# [6] = tested on: Streptococcus mitis (KCTC 3556); assay: Growth of Streptococcus mitis in BHI broth; settings: citric acid 0.4 g, trisodium phosphate 0.64 g, pH 6.0
# Source text: as §1
compound,measurement,setting,value
O=P([O-])([O-])[O-].[Na+].[Na+].[Na+] [trisodium phosphate],growth of P. ovale,[1],significantly suppressed
HCl [Broth D],Absorbance (OD),[2]; 4 hrs,0.018 OD
same,Absorbance (OD),[2]; 6 hrs,0.039 OD
same,Absorbance (OD),[2]; 8 hrs,0.118 OD
same,Absorbance (OD),[2]; 10 hrs,0.127 OD
same,Absorbance (OD),[2]; 12 hrs,0.283 OD
same,Absorbance (OD),[2]; 14 hrs,0.303 OD
same,Absorbance (OD),[2]; 16 hrs,0.203 OD
same,Absorbance (OD),[2]; 18 hrs,0.199 OD
same,Absorbance (OD),[3]; 4 hrs,0.005 OD
same,Absorbance (OD),[3]; 8 hrs,0.010 OD
same,Absorbance (OD),[3]; 12 hrs,0.002 OD
same,Absorbance (OD),[3]; 16 hrs,0.008 OD
same,Growth observed (in words),[3]; 20 hrs,No change
same,Growth observed (in words),[3]; 24 hrs,No change
same,Growth observed (in words),[3]; 56 hrs,Full growth
same,Absorbance (OD),[4]; 4 hrs,0.011 OD
same,Absorbance (OD),[4]; 6 hrs,0.068 OD
same,Absorbance (OD),[4]; 8 hrs,0.167 OD
same,Absorbance (OD),[4]; 10 hrs,0.192 OD
same,Absorbance (OD),[4]; 12 hrs,0.224 OD
same,Absorbance (OD),[4]; 14 hrs,0.234 OD
same,Absorbance (OD),[4]; 16 hrs,0.319 OD
same,Absorbance (OD),[4]; 18 hrs,0.224 OD
same,Absorbance (OD),[5]; 4 hrs,0.032 OD
same,Absorbance (OD),[5]; 6 hrs,0.092 OD
same,Absorbance (OD),[5]; 8 hrs,0.141 OD
same,Absorbance (OD),[5]; 10 hrs,0.200 OD
same,Absorbance (OD),[5]; 12 hrs,0.244 OD
same,Absorbance (OD),[5]; 14 hrs,0.212 OD
same,Absorbance (OD),[5]; 16 hrs,0.235 OD
same,Absorbance (OD),[5]; 18 hrs,0.210 OD
same,Absorbance (OD),[6]; 4 hrs,0.054 OD
same,Absorbance (OD),[6]; 6 hrs,0.104 OD
same,Absorbance (OD),[6]; 8 hrs,0.205 OD
same,Absorbance (OD),[6]; 10 hrs,0.244 OD
same,Absorbance (OD),[6]; 12 hrs,0.218 OD
same,Absorbance (OD),[6]; 14 hrs,0.127 OD
same,Absorbance (OD),[6]; 16 hrs,0.089 OD
same,Absorbance (OD),[6]; 18 hrs,0.092 OD
